Assay results taken from patent US8097728B2, “Iminosugar compounds with antiflavirus activity” (Philadelphia Health & Education Corporation, priority 2007, dated 2012).
Entries after “also recorded” stand apart in the source; their conditions may differ. Read-outs that look alike come from different tables or passages of the source.

Columns and labels:
WNV = WNV yield reduction assay in BHK cells; conditions: for selectivity ratio at 48 h: hamster
Method: Cells and viruses. BVDV-free MDBK cells (CCL 22) were obtained from the American Type Culture Collection and propagated in DMEM/F12 essential medium supplemented with penicillin (500 U/ml), streptomycin (500 U/ml), and 10% heat inactivated horse serum (Invitrogen). Cells were maintained in a humidified incubator at 37° C. with 5% CO2. BVDV (NADL strain) was obtained from Dr. Rubin Donis (Univ. of Nebraska-Lincoln). For infections, virus inoculum was added in complete medium and adsorbed for 1 h at 37° C., the inoculum was then removed, the cells washed once with medium and fresh medium containing compounds added. Virus stocks were prepared by freeze-thawing the infected cells and culture supernatant three times followed by centrifugation at 1,000 g for 5 min. Stock titers were determined, and stocks were aliquoted and stored at −80° C. WNV was obtained from a cDNA clone of a human 2002 isolate from Texas (Rossi et al., 2005); virus obtained from BHK cells electroporated with the in vitro synthesized RNA from this cDNA clone was passaged in Vero cells before use in antiviral assays. Dengue virus (DV) serotype 2 was a New Guinea C virus that had been passaged 28 times in suckling mouse brain, twice in Vero cells, and once in C6/36 mosquito cells.
WNV and DV Yield Reduction assay: Antiviral activity against WNV was evaluated in a yield reduction assay. Briefly, BHK cells were plated in 96-well plates at a concentration of 2.5×10^4 cells/well. 24 hours after plating, the cells were infected with WNV at an MOI of 0.05. After 1 hour the inoculum was aspirated and the cells re-fed with fresh DMEM containing dilutions of the test compounds. Plates were then incubated at 37° C. for 48 hours, the supernatant collected and the WNV produced titered. For virus titration, Vero cells were plated in 96-well plates at 8.0×10^3 cells/well and incubated overnight. The Vero cell monolayers were then infected for 1 hour with various dilutions of the WNV supernatant, overlaid with media containing 0.6% tragacanth (ICN, CA) and incubated at 37° C. for 24-30 hours. The culture media was then aspirated; the plate was rinsed, air-dried, and fixed with 50 ul/well acetone/methanol (50:50). Viral foci were detected for enumeration by immunostaining as described previously (Rossi et al., 2005). For antiviral testing against DV, DV serotype 2, drug incubations and titrations were performed essentially as described for WNV, except that the virus was harvested from drug-treated cultures 72 hrs after infection, and foci were stained using hybridoma culture fluid harvested from monoclonal antibody-producing hybridoma clone D1-4G2 (Gentry et al., 1982) following 3 days of incubation on Vero cells under the tragacanth overlay.
For this purpose, BHK cells were infected with WNV at an moi of 0.05, and incubated in either the absence or presence of various concentrations of N-butylcyclohexyl-DNJ (SP169) and N-propylcyclohexyl-DNJ (SP173). After three days, the amount of progeny virus produced was determined by plaque assays on indicator Vero cells.

[1] = MTT compound toxicity assay on BHK cells; format: cell-based; conditions: hamster; WNV (BHK); MTT, 50% reduction relative to DMSO
Method: (§1) Compound toxicity assay. Compound cytotoxicity was assessed by using an MTT based toxicity assay kit (Sigma, St. Louis, Mo.) as described elsewhere (Gu et al., 2006). Briefly, cells cultured under conditions identical to those used in the viral assay were incubated with various concentrations of the compound for 72 hours. MTT was added to the media to a final concentration of 0.5 mg/ml and was incubated for 3 hours at 37 C. After the culture media was removed, formazan crystals was dissolved by adding 150 ul of solubilization solution (10% Triton X-100, 0.1 N HCl in anhydrous isopropanol) for 15-30 minutes. The absorbance of the dissolved formazan was measured spectrophotometrically at 570 nm with absorbance at 690 nm as background.

DV serotype 2 = assay: DV yield reduction assay in BHK cells; format: cell-based, Dengue virus (DV) serotype 2; conditions: for selectivity ratio at 72 h: hamster, read-out: SI (Selective Index, CC50/IC50)
Method: In the DV infection assay, a serotype 2 DV was used to infect BHK cells in the presence or absence of testing compounds and viruses produced after 72 hours were titered in a manner similar to the WNV assay. In this experiment, N-butylcyclohexyl-DNJ (SP169), N-pentyl(1-hydroxylcyclohexyl)-DNJ (OSL-95II), […] and N-propylcyclohexyl-DNJ (SP173) were compared with NNDNJ (Wu et al., 2002) and castanospermine. […] All compounds had no toxicity at the highest concentrations used in this experiment (FIG. 5B, Table 1).

HBV = HBV antigen assay: LHBs and MHBs secreted by HepG2.2.15 cells, immunoblot; format: cell-based, Hepatitis B virus; conditions: 7 days
Method: MHBs and LHBs are HBV envelope proteins that are sensitive to glucosidase inhibition and inhibition of these important viral glycoproteins serves as a surrogate for HBV growth. […] To assess the activity of this compound in the context of viral replication, HepG2 2.2.15 cells were incubated with the indicated DNJ derived compound. HepG 2.2.15 cells secrete readily detectable amounts of MHBs and LHBs into the culture medium. After 7 days of incubation, the amount of HBV M and L in the culture medium was determined by western blot. […] The nature of the selective antiviral activity is not known, but may be due to cell specific activity since HBV is studied in human liver derived hepatoblastoma HepG2 cells and BVDV and WNV were studied in MDBK and BHK cells, respectively.
HBV antigen assay: Antiviral activity against HBV was determined using HepG2.2.15 cells, which contain a dimer of the HBV genome and express all viral gene products, including envelope glycoproteins (Sells, Chen, and Acs, 1987). Briefly, HepG2.2.15 cells were seeded in 24 well trays, and allowed to grow to confluence prior to addition of drug, as described previously (Simsek et al., 2005). After seven days of treatment, supernatants were harvested and assayed for the presence of the Large Hepatitis B (LHBs) and middle Hepatitis B (MHBs) glycoproteins by electrophoresis through 12% polyacrylamide gels and immunoblotting with a polyclonal antibody that recognizes the pre-S2 region of the LHBs and MHBs proteins (Research Diagnostics Inc., Flanders, N.J.) as described (Simsek et al., 2005). Quantitation was performed using AlphaEase software (Alphalnnotech).

BVDV = BVDV single cycle virus yield reduction assay in MDBK cells; format: cell-based, Bovine Viral Diarrhea virus (NADL strain); conditions: for antiviral activity against BVDV (in words): MDBK cells, virus yield reduction, FIG. 2C / 4C
Method: BVDV antiviral and plaque assays. To evaluate antiviral activity against BVDV, a single cycle virus yield reduction assay was performed in the presence of various concentrations of the test compounds. Specifically, 2×10^5 MDBK cells/well were plated in 24 well plates. Twenty-four hours later, the cells were infected with BVDV at a multiplicity of infection (moi) of 0.5 PFU/cell in 100 ul complete media. After adsorption for 1 h at 37° C., the inoculum was removed, and cells were washed with media before media containing vehicle or various concentrations of each compound was added. At 22 hour post infection, both cell and media were collected and freeze-thawed three times before the virus was titered. For BVDV virus titer determination, 10^−2, 10^−3, and 10^−4 dilutions of virus were inoculated onto MDBK cells as described previously (Gu et al., 2000; Jordan et al., 2002). After absorption and washing the cells were overlaid with medium containing methylcellulose or soft agar and incubated at 37° C. for 3 days or until plaques were visible. Plaques were counted directly under the microscope or after staining with crystal violet in 70% methanol for 15 min.
(§2) The anti-viral activity of this family of compounds against BVDV was then determined by a single cycle viral yield reduction assay in Madin Darby Bovine Kidney (MDBK) cells where the compounds are incubated with cells for 20 hours during the period of infection. Yields of virus were then determined by plaque assay on new MDBK cell monolayers. Compound toxicity was measured by MTT assay and the CC50 determined as the concentration of compound producing 50% reduction in absorption readings. […] This is consistent with previous findings in which oxygenation and methoxylation of side chains emanating from the ring nitrogen were less toxic in tissue culture and in animals than straight chain alkylated DNJs (Mehta et al., 2002b).

MDBK cells = assay: MTT compound toxicity assay on MDBK cells; format: cell-based, Bovine; conditions: 72 hours; for CC50: BVDV (MDBK), concentration reducing MTT values (570 nm) by 50% relative to DMSO; for toxicity in MDBK cells (in words): MTT, FIG. 4B
Method: as §1, §2

BHK cells = assay: MTT compound toxicity assay on BHK cells; format: cell-based; conditions: for CC50: WNV (BHK), MTT, 50% reduction relative to DMSO
Method: as §1

[2] = MTT compound toxicity assay on MDBK cells; format: cell-based, Bovine; conditions: bovine
Method: as §1, §2

[3] = Dengue virus, BHK, 72 h, read-out: IC50 against DV
[4] = BVDV (MDBK), concentration reducing plaque number by 50% relative to DMSO, read-out: IC50
[5] = WNV (BHK), plaque number reduced by 50% relative to DMSO, 48 hours
[6] = MDBK cells, MTT, text to FIG. 2B / 4B

O[C@H]1[C@H](O)[C@@H](O)CN2CC[C@H](O)[C@H]12 [CAST, Castanospermine, reference compound]
IC50 (WNV; West Nile virus, BHK, 48 h): > 20 µM | selectivity ratio at 48 h (WNV): 5 | antiviral activity against WNV (in words) (WNV; highest concentration tested (20 uM)): no significant activity | CC50 at 72 h [1]: > 100 µM | IC50 (DV serotype 2; Dengue virus, BHK, 72 h): 6 µM | IC50 (DV serotype 2; [3]): 6 µM | selectivity ratio at 72 h (DV serotype 2; DV (BHK)): > 17

Nc1ccn([C@@H]2CS[C@H](CO)O2)c(=O)n1 [Compound 3TC, reference compound]
reduction of MHBs and LHBs in culture medium (in words) (HBV; 3TC 1 ug/ml, FIG. 6B): little effect

CCOCCCCCN1C[C@H](O)[C@@H](O)[C@H](O)[C@H]1CO [Compound 6-08, 6′-oxaoctyl-DNJ]
antiviral activity against BVDV (in words) (BVDV): retained the best antiviral activity of the series

CCCCCCCCCN1C[C@H](O)[C@@H](O)[C@H](O)[C@H]1CO [NNDNJ, N-nonyl-DNJ, reference compound]
SI (Selective Index, CC50/IC50) (BVDV; BVDV (MDBK)): >50 | IC50 (BVDV; [4]): < 3 µM | CC50 (MDBK cells): 150 µM | SI (Selective Index, CC50/IC50) (WNV; WNV (BHK)): 5-25 | IC50 (WNV; [5]): 4 µM | CC50 (BHK cells): 20 to 100 µM | SI (Selective Index, CC50/IC50) (DV serotype 2; DV (BHK)): 20-100 | IC50 (DV serotype 2; text to FIG. 5A, BHK cells, DV serotype 2, 72 hours, read-out: IC50 against DV): 1 µM

OC[C@@H]1[C@@H](O)[C@H](O)[C@@H](O)CN1CCCCCC1CCCCC1 [OSL-1, N-pentylcyclohexyl-DNJ]
inhibition of secretion of viral glycoproteins MHBs and LHBs (in words) (HBV; 50 uM, FIG. 6A): lacked antiviral activity in this assay

OC[C@@H]1[C@@H](O)[C@H](O)[C@@H](O)CN1CCCCCCC1CCCCC1 [OSL-2, N-hexylcyclohexyl-DNJ]
antiviral activity against BVDV (in words) (BVDV): appeared to be inactive against BVDV

OC[C@@H]1[C@@H](O)[C@H](O)[C@@H](O)CN1CCCCCCC1(O)CCCCC1 [OSL-3, N-hexyl(1-hydroxycyclohexyl)-1,5-dideoxy-1,5-imino-D-glucitol]
CC50 at 72 h [2, 6]: > 300 µM

OC[C@@H]1[C@@H](O)[C@H](O)[C@@H](O)CN1CCCCC1(O)CCCCC1 [OSL-12-31, N-butyl(1-hydroxycyclohexyl)-1,5-dideoxy-1,5-imino-D-glucitol]
CC50 at 72 h [2, 6]: > 300 µM | toxicity in MDBK cells (in words) (MDBK cells): less toxic in MDBK cultures than SP169

OC[C@@H]1[C@@H](O)[C@H](O)[C@@H](O)CN1CCCCC1=CCCCC1 [OSL-12-51, N-butyl(1-cyclohexenyl)-DNJ]
antiviral activity against BVDV (in words) (BVDV): substantially less active against BVDV

OC[C@@H]1[C@@H](O)[C@H](O)[C@@H](O)CN1CCCCCC1(O)CCCCC1 [OSL-95II, N-pentyl(1-hydroxycyclohexyl)-1,5-dideoxy-1,5-imino-D-glucitol]
IC50 (BVDV; Bovine viral diarrhea virus isolates and strains, MDBK): 3 µM | selectivity ratio at 20 h (BVDV; bovine, BVDV (MDBK), read-out: SI (Selective Index, CC50/IC50)): > 166 | CC50 at 72 h ([2]; BVDV (MDBK), concentration reducing MTT values (570 nm) by 50% relative to DMSO): > 500 µM | toxicity in MDBK cells (in words) (MDBK cells): much less toxic than N-pentylcyclohexyl-DNJ (OSL-1); also recorded: significantly less cytotoxic against MDBK cells | IC50 (WNV; West Nile virus, BHK, 48 h): 4.5 µM | selectivity ratio at 48 h (WNV): > 9 | CC50 at 72 h [1]: > 100 µM | IC50 (DV serotype 2; Dengue virus, BHK, 72 h): 2 µM | IC50 (DV serotype 2; [3]): 1 to 2 µM | selectivity ratio at 72 h (DV serotype 2; DV (BHK)): > 50

OC[C@@H]1[C@@H](O)[C@H](O)[C@@H](O)CN1CCCC1CCCCC1 [SP173, N-propylcyclohexyl-DNJ]
SI (Selective Index, CC50/IC50) (BVDV; BVDV (MDBK)): >30 | IC50 (BVDV; [4]): 5 µM | CC50 (MDBK cells): > 150 µM | antiviral activity against WNV (in words) (WNV; BHK cells, moi 0.05, FIG. 3B / 4D): comparable to NNDNJ in activity | SI (Selective Index, CC50/IC50) (WNV; WNV (BHK)): >100 | IC50 (WNV; [5]): 1 µM | IC50 (WNV; read-out: concentration inhibiting 50% of the WNV progeny produced, text to FIG. 3B, BHK cells, moi 0.05): 5 µM | concentration without any detectable cell toxicity (highest concentration tested) (BHK cells; BHK cells, measured in parallel to WNV assay, data not shown): 100 µM | CC50 (BHK cells): > 100 µM | SI (Selective Index, CC50/IC50) (DV serotype 2; DV (BHK)): >33 | IC50 (DV serotype 2; DV (BHK), serotype 2, 72 hrs, read-out: IC50): 3 µM
